What was measured:
serotonin receptor = experiment: Regional brain biodistribution of 99mTcN-DESI (Group A vs Group B with unlabeled desipramine); format: in vivo, SD rats
Procedure: The rats were divided into two groups, group A and group B. Into each rat in group A was injected 20 μCi of the ^99mTcN-DESI. Into each rat in group B were injected 20 μCi of the ^99mTcN-DESI and 1.0 mg/kg of unlabeled desipramine at the same time.
SD rats weighing about 250 g were put under intraperitoneal anesthesia with a mixture of xylazine (18 mg/kg) and ketamine (15 mg/kg) and given an injection in the jugular vein. Then, the organs (brain, heart, lung, liver, spleen, kidney, muscle, adrenal, and submaxillary gland) were excised from the rats at different intervals of time, washed and then weighed. In addition, blood samples were collected and then weighed. The data on the biodistribution are expressed as the mean±significant difference of the percentage of radioactivity level per gram of the organ weight based on the dose of radioactivity, (% dose/g). The measurement was carried out using groups of 3 rats each.

[1] = Retention on Sep-Pak C18 reversed phase column (lipophilicity); format: physicochemical
Source text: Cation exchange resin: Sep-Pak CM (COONa), illpore, anion exchange resin: Sep-Pak QMA (CONH(CH2)3N(CH3)3^+Cl), Millpore, reversed phase column: Sep-Pak C18, Millpore. The complex was retained in an amount of about 95% in the cation exchange resin, about 60% in the anion exchange resin, or 99.5% in the reversed phase column.

[2] = Group A (complex alone), 30 min
[3] = Group A (complex alone), 60 min
[4] = Group B (with 1.0 mg/kg unlabeled desipramine), 5 min
[5] = Group B (with 1.0 mg/kg unlabeled desipramine), 30 min
[6] = Group B (with 1.0 mg/kg unlabeled desipramine), 60 min

Question: What does the source list for `COCCC[P+]1(CCCOC)CCN(CCOC)CC[P+](CCCOC)(CCCOC)[99Tc-2]12(#[N])[NH]C(C(=O)N(C)CCCN1c3ccccc3CCc3ccccc31)C[S]2` (centres unmarked) [^99mTcN-DESI]?
Answer: Cerebellum % dose/g (serotonin receptor; Group A (complex alone), 5 min): 0.064 ± 0.005 % dose/g; Cortex % dose/g (serotonin receptor; Group A (complex alone), 5 min): 0.029 ± 0.004 % dose/g; Hypothalamus % dose/g (serotonin receptor; Group A (complex alone), 5 min): 0.325 ± 0.058 % dose/g; Medulla % dose/g (serotonin receptor; Group A (complex alone), 5 min): 0.057 ± 0.004 % dose/g; Striatum % dose/g (serotonin receptor; Group A (complex alone), 5 min): 0.076 ± 0.025 % dose/g; Cerebellum % dose/g (serotonin receptor; [2]): 0.039 ± 0.015 % dose/g; Cortex % dose/g (serotonin receptor; [2]): 0.021 ± 0.002 % dose/g; Hypothalamus % dose/g (serotonin receptor; [2]): 0.408 ± 0.085 % dose/g; Medulla % dose/g (serotonin receptor; [2]): 0.046 ± 0.003 % dose/g; Striatum % dose/g (serotonin receptor; [2]): 0.054 ± 0.017 % dose/g; Cerebellum % dose/g (serotonin receptor; [3]): 0.028 ± 0.012 % dose/g; Cortex % dose/g (serotonin receptor; [3]): 0.021 ± 0.002 % dose/g; Hypothalamus % dose/g (serotonin receptor; [3]): 0.364 ± 0.069 % dose/g; Medulla % dose/g (serotonin receptor; [3]): 0.029 ± 0.006 % dose/g; Striatum % dose/g (serotonin receptor; [3]): 0.07 ± 0.019 % dose/g; Cerebellum % dose/g (serotonin receptor; [4]): 0.048 ± 0.008 % dose/g; Cortex % dose/g (serotonin receptor; [4]): 0.014 ± 0.004 % dose/g; Hypottalamus % dose/g (serotonin receptor; [4]): 0.125 ± 0.029 % dose/g; Medulla % dose/g (serotonin receptor; [4]): 0.038 ± 0.001 % dose/g; Striatum % dose/g (serotonin receptor; [4]): 0.053 ± 0.001 % dose/g; Cerebellum % dose/g (serotonin receptor; [5]): 0.035 ± 0.007 % dose/g; Cortex % dose/g (serotonin receptor; [5]): 0.009 ± 0.002 % dose/g; Hypottalamus % dose/g (serotonin receptor; [5]): 0.162 ± 0.106 % dose/g; Medulla % dose/g (serotonin receptor; [5]): 0.027 ± 0.013 % dose/g; Striatum % dose/g (serotonin receptor; [5]): 0.023 ± 0.003 % dose/g; Cerebellum % dose/g (serotonin receptor; [6]): 0.031 ± 0.011 % dose/g; Cortex % dose/g (serotonin receptor; [6]): 0.006 ± 0.000 % dose/g; Hypottalamus % dose/g (serotonin receptor; [6]): 0.152 ± 0.033 % dose/g; Medulla % dose/g (serotonin receptor; [6]): 0.016 ± 0.002 % dose/g; Striatum % dose/g (serotonin receptor; [6]): 0.035 ± 0.011 % dose/g; accumulation in cortex (serotonin receptor; group A, no unlabeled desipramine): specifically accumulated; accumulation in cortex (serotonin receptor; group B, unlabeled desipramine administered): very small amount; specificity for serotonin receptor (serotonin receptor; suggested from group A vs group B cortex accumulation): retained specificity for serotonin receptor; amount retained in the reversed phase column [1]: 99.5%; lipophilicity suggested by retention in reversed phase column [1]: high lipophilic

— US20020048549A1, “Radioactive transition metal nitride heterocomplex” (priority 1996, published 2002)
